According to the NIST ThermoML archive (doi:10.1016/j.jct.2016.10.006):
Numbers after ± are expanded uncertainties.

What was measured:
[1] = Crystal; DTA
[2] = Molar enthalpy of transition or fusion; conditions: Crystal; DSC

In the case of `Cn1cnc([N+](=O)[O-])c1Cl` [5-chloro-1-methyl-4-nitroimidazole], the Normal melting temperature [1] is reported as 148.20 ± 1.1 °C and the “Molar enthalpy of transition or fusion” value [2] is reported as 5.36 ± 0.222 kcal/mol.
